# Patent US11779585B2 (priority 2020, dated 2023)
# Where “and” joins values, the source holds several entries; their conditions need not be identical. Equal values may be shown once. Read-outs that look alike come from different tables or passages of the source.
# How the values were obtained:
# SARS-CoV = conditions: Dyall et al.; cited from earlier work
# SARS-CoV2 = assay: microbe, parasite or virus in culture; assay type: cell-based, SARS-CoV-2
# MERS-CoV = conditions: Dyall et al.; cited from earlier work
# Vero E6 cells = conditions: hydrochloride
# 2019-nCoV = conditions: Wang et al., not in Table 7; cited from earlier work
# [1] = Severe acute respiratory syndrome coronavirus 2, Vero C1008
compound,measurement,setting,value
"CN(C)CCCN1c2ccccc2Sc2ccc(Cl)cc21.Cl [Chlorpromazine HCl, chlorpromazine HCl, reference compound]",IC50,SARS-CoV,13 µM
same,Inhibition,"SARS-CoV2; 30 µM, HCl",100.2%
same,Inhibition,"SARS-CoV2; 60 µM, HCl",100.2%
same,IC50,SARS-CoV2; [1],7.2 µM
same,inhibition at 30 µM,SARS-CoV2; [1],100%
same,IC50,MERS-CoV,9.5 µM
"Cl.NC(=O)c1cn([C@@H]2O[C@H](CO)[C@@H](O)[C@H]2O)c2ncnc(N)c12 [Oya2, 4-amino-7-((2R,3R,4S,5R)-3,4-dihydroxy-5-(hydroxymethyl)tetrahydrofuran-2-yl)-7H-pyrrolo[2,3-d]pyrimidine-5-carboxamide hydrochloride]",Cytotoxicity,"Vero E6 cells; 0.0047 μM, MOI 0.6, Plate 1",−2.54% and −1.465% and −2.751%
same,Cytotoxicity,"Vero E6 cells; 0.0047 μM, MOI 0.6, Plate 2",−2.54% and −1.465% and −2.751%
same,Cytotoxicity,"Vero E6 cells; 0.0094 μM, MOI 0.6, Plate 1",0.4496% and −3.731% and −1.047%
same,Cytotoxicity,"Vero E6 cells; 0.0094 μM, MOI 0.6, Plate 2",0.4496% and −3.731% and −1.047%
same,Cytotoxicity,"Vero E6 cells; 0.0188 μM, MOI 0.6, Plate 1",−1.946% and −1.045% and −1.4651%
same,Cytotoxicity,"Vero E6 cells; 0.0188 μM, MOI 0.6, Plate 2",−1.946% and −1.045% and −1.4651%
same,Cytotoxicity,"Vero E6 cells; 0.075 μM, MOI 0.6, Plate 1",16.08% and 19.63% and 18.13%
same,Cytotoxicity,"Vero E6 cells; 0.075 μM, MOI 0.6, Plate 2",16.08% and 19.63% and 18.13%
same,Cytotoxicity,"Vero E6 cells; 0.15 μM, MOI 0.6, Plate 1",35.37% and 35.25% and 31.56%
same,Cytotoxicity,"Vero E6 cells; 0.15 μM, MOI 0.6, Plate 2",35.37% and 35.25% and 31.56%
same,Cytotoxicity,"Vero E6 cells; 0.3 μM, MOI 0.6, Plate 1",55.54% and 56.53% and 57.44%
same,Cytotoxicity,"Vero E6 cells; 0.3 μM, MOI 0.6, Plate 2",55.54% and 56.53% and 57.44%
same,Cytotoxicity,"Vero E6 cells; 0.6 μM, MOI 0.6, Plate 1",69.74% and 68.71% and 69.51%
same,Cytotoxicity,"Vero E6 cells; 0.6 μM, MOI 0.6, Plate 2",69.74% and 68.71% and 69.51%
same,Inhibition,"SARS-CoV2; 0.0047 μM, MOI 0.6, Plate 2, hydrochloride",6.759% and 2.316%
same,Inhibition,"SARS-CoV2; 0.0047 μM, title MOI 0.6 (text MOI 1.3), Plate 1, hydrochloride",−4.548% and −2.306% and −5.003%
same,Inhibition,"SARS-CoV2; 0.0047 μM, title MOI 0.6 (text MOI 1.3), Plate 2, hydrochloride",−12.4801% and −9.091%
same,Inhibition,"SARS-CoV2; 0.0094 μM, MOI 0.6, Plate 2, hydrochloride",22.21%
same,Inhibition,"SARS-CoV2; 0.0094 μM, title MOI 0.6 (text MOI 1.3), Plate 2, hydrochloride",−4.5066% and −0.5728% and 3.754%
same,Inhibition,"SARS-CoV2; 0.0188 μM, MOI 0.6, Plate 2, hydrochloride",9.743% and 4.635%
same,Inhibition,"SARS-CoV2; 0.0188 μM, title MOI 0.6 (text MOI 1.3), Plate 1, hydrochloride",1.888% and −0.5178% and 4.439%
same,Inhibition,"SARS-CoV2; 0.0375 μM, MOI 0.6, Plate 1, hydrochloride",12.21% and 2.813% and 5.217%
same,Inhibition,"SARS-CoV2; 0.0375 μM, MOI 0.6, Plate 2, hydrochloride",−1.2509% and −10.9963%
same,Inhibition,"SARS-CoV2; 0.0375 μM, title MOI 0.6 (text MOI 1.3), Plate 2, hydrochloride",9.292% and 6.13%
same,Inhibition,"SARS-CoV2; 0.075 μM, MOI 0.6, Plate 1, hydrochloride",48.8% and 30.54%
same,Inhibition,"SARS-CoV2; 0.075 μM, MOI 0.6, Plate 2, hydrochloride",77.73%
same,Inhibition,"SARS-CoV2; 0.15 μM, MOI 0.6, Plate 1, hydrochloride",94.81% and 98.18%
same,Inhibition,"SARS-CoV2; 0.15 μM, MOI 0.6, Plate 2, hydrochloride",99.76%
same,Inhibition,"SARS-CoV2; 0.15 μM, title MOI 0.6 (text MOI 1.3), Plate 1, hydrochloride",100.5487% and 99.6%
same,Inhibition,"SARS-CoV2; 0.15 μM, title MOI 0.6 (text MOI 1.3), Plate 2, hydrochloride",95.57% and 98.32%
same,Inhibition,"SARS-CoV2; 0.3 μM, MOI 0.6, Plate 1, hydrochloride",99.8055%
same,Inhibition,"SARS-CoV2; 0.3 μM, MOI 0.6, Plate 2, hydrochloride",99.76%
same,Inhibition,"SARS-CoV2; 0.3 μM, title MOI 0.6 (text MOI 1.3), Plate 1, hydrochloride",99.49%
same,Inhibition,"SARS-CoV2; 0.3 μM, title MOI 0.6 (text MOI 1.3), Plate 2, hydrochloride",97.81%
same,Inhibition,"SARS-CoV2; 0.6 μM, MOI 0.6, Plate 1, hydrochloride",99.76%
same,Inhibition,"SARS-CoV2; 0.6 μM, MOI 0.6, Plate 2, hydrochloride",100.0302%
CCN(CC)CCCC(C)Nc1ccnc2cc(Cl)ccc12 (stereo not shown) [chloroquine],IC50,2019-nCoV,1.13 µM
